{"source": "patent US20230302009A1", "about": "“BACE1 INHIBITOR TREATMENT FOR S[…] STORM” (priority 2020, published 2023)", "key": {"[1]": {"details": "AD clinical trials (refs 27, 28, 34, 35); cited from earlier work"}, "LPS-challenged mice [2]": {"tested_on": "LPS-challenged mice", "assay": "Survival rescue after lethal dose of LPS", "type": "in vivo, C57BL/6 mice"}, "LPS-challenged mice [3]": {"tested_on": "LPS-challenged mice", "details": "mice without LPS treatment, MK-8931 50 mg/kg oral"}, "LPS-challenged mice [4]": {"tested_on": "LPS-challenged mice", "assay": "H&E histology, tissue injury score after LPS", "details": "LPS only or LPS plus MK-8931"}, "[5]": {"details": "MK-8931 plus LPS versus LPS only"}}, "data": [{"smiles": "CC#Cc1cncc(-c2ccc3c(c2)C2(N=C(C)C(N)=N2)C2(CCC(OC)CC2)C3)c1", "note": "(stereo not drawn) [AZD3293]", "values": [{"measurement": "tolerability in patients", "setting": "[1]", "value": "well-tolerated"}]}, {"smiles": "C[C@@]1(c2nc(NC(=O)c3ncc(C(F)(F)F)cc3Cl)ccc2F)CO[C@@](C)(C(F)(F)F)C(N)=N1", "note": "[CNP50]", "values": [{"measurement": "tolerability in patients", "setting": "[1]", "value": "well-tolerated"}]}, {"smiles": "CN1C(N)=N[C@](C)(c2cc(NC(=O)c3ccc(F)cn3)ccc2F)CS1(=O)=O", "note": "[MK-8931]", "values": [{"measurement": "mice died", "setting": "LPS-challenged mice [2]; LPS 15 mg/kg i.p. plus MK-8931 50 mg/kg oral, 3 of 14 mice, between 20 to 96 hours after LPS", "value": 21.4, "unit": "%"}, {"measurement": "mice survived", "setting": "LPS-challenged mice [2]; LPS 15 mg/kg i.p. plus MK-8931 50 mg/kg oral, 11 of the 14 mice", "value": 78.6, "unit": "%"}, {"measurement": "increase of survival", "setting": "LPS-challenged mice [2]; [5]", "value": 367, "unit": "%"}, {"measurement": "reduction of mortality rate", "setting": "LPS-challenged mice [2]; [5]", "value": 3.7, "unit": "fold"}, {"measurement": "plasma levels of cytokines/chemokines, MK-8931 alone", "setting": "LPS-challenged mice [3]", "value": "did not affect"}, {"measurement": "tolerability in patients", "setting": "[1]", "value": "safe oral drug and well-tolerated"}, {"measurement": "tissue injury in spleen and liver", "setting": "LPS-challenged mice [4]", "value": "No significant tissue injury"}]}]}
